According to patent US9493460B2, “Diimide compounds” (UCL BUSINESS PLC, priority 2013, dated 2016):

Key:
[1] = tested on: 83 human genes involved in telomere replication and maintenance in Mia-PaCa2 cells; test: qPCR array, telomere replication and maintenance genes; type: cell-based
Protocol: Following compound exposure, cells were washed twice in PBS, harvested by trypsinisation, collected by centrifugation (300 g, 5 min, 4° C.) and re-suspended in RLT buffer (Qiagen). Samples were homogenised using QIAshredder spin columns and stored at −80° C. prior to RNA extraction. Three biological replicates were performed on separate days.
The expression of (i) 83 key human genes involved in telomere replication and maintenance, and (ii) 83 human genes involved in DNA damage signaling responses, was assessed using PCR arrays (SABiosciences). Total RNA was extracted from approximately 1×10^7 Mia-PaCa2 cells treated for 24 h with compound 3d, using the RNeasy kit (Qiagen) with on-column DNaseI treatment to remove residual genomic DNA. The quality of the harvested RNA was confirmed by nanodrop spectroscopy and by analysis with a Human RT^2 RNA QC PCR Array. First-strand cDNA synthesis was performed with the RT^2 first strand kit and qPCR was carried out using the RT^2 qPCR master mix (Qiagen) using 0.5 μg total RNA per array plate in a Stratagene MX-3000P instrument (Agilent, USA). Relative gene expression was determined by the ΔΔCT method using the web-based RT^2 Profiler™ PCR Array Data Analysis software (SABiosciences). Data were normalized to the geometric mean of five housekeeping genes (RPLP10, β-actin, B2M, GAPDH and HPRT1).
Dose-response curves were used to guide the choice of compound concentration and time-points for the array experiments (FIG. 2a). […] To explore this response continuum the transcriptional signature of cells exposed for 24 h to 20 nM, 40 nM, 80 nM concentrations of 3d, or solvent alone as control, was analysed as described in Materials and Methods.
However, changes in transcript abundance were modest, with only seven of these genes (MYC, NHP2, PPARG, PRKCB, PTEGES3, RASSF1 and SLX4) showing greater than two-fold abundance changes (FIGS. 2d and 2e).

telomerase = test: TRAP-LIG cellular telomerase activity assay; type: cell-based, human; settings: at the doses relevant to the IC50 values
Protocol: FIG. 1. Gel showing telomerase activity in MIA-Pa-Ca-2 cells treated with compound 3h after seven days of treatment. Lane 1; untreated cells, lanes 2-4; cells treated increasing concentrations of 3h. Telomerase activity was assessed using the TRAP-LIG assay as described in Materials and Methods. Compound concentrations are indicated. Neg; untreated cells, Pos; positive control. Neg: negative control with telomerase but no ligand.
Telomerase activity was determined using the TRAP-LIG assay, a modified telomere repeat amplification protocol that ensures that there is no carry-over of ligand into the second PCR step of the assay. Briefly, 1 μg of protein from untreated and treated cells were incubated with TS forward primer (0.1 μg of 5′-AAT CCG TCG AGC AGA GTT-3′) at 30° C. for 10 min to allow the initial elongation to take place. Elongated products were purified using the QIAquick nucleotide purification kit (Qiagen) according to the manufacturer's instructions. Eluted samples were freeze-dried and re-dissolved in PCR grade water. Re-dissolved PCR products were subjected to amplification in master mix containing ACX reverse primer (1 μM, 5′-GCG CGG [CTTACC]3 CTA ACC-3′), TS forward primer (0.1 μg), TRAP buffer, BSA (5 μg), 0.5 mM dNTPs, and 2U RedHot TAQ polymerase (ABgene, U.K.) for 35 cycles of 94° C. for 30 s, 61° C. for 1 min, and at 72° C. for 1 min. […]

[2] = tested on: Mia-Paca2 human pancreatic tumour xenografts; test: MiaPaca-2 tumour xenograft; type: in vivo, CD1 nu/nu female mice
Protocol: CD1 nu/nu female mice (7-8 weeks old) were housed in microisolator cages, fed with commercial mouse food (Food Harlam 2018, Madison, USA) and allowed to acclimatise for seven days before any procedure. Exponentially growing MiaPaca-2 cells (5×10^6 cell/100 uL unsupplemented RPMI) were inoculated subcutaneously into the right flank (100 uL per mice). Measurements of tumour growth were carried out at least twice a week with digital callipers until tumour masses reached an average size of 0.1 cm^3. Tumour volume was calculated by using the standard formula for determining the volume of an ellipsoid ([length×width×depth×π]/6)).
(§1) In a first experiment, mice were allocated into groups (six mice per group) as follows: control group (IV 100 uL/10g sterile PBS) and single dose of 20 mg/kg of 3d (IV 100 uL/10 g body weight in sterile PBS).
(§2) In a subsequent experiment using CD1 nu/nu female mice as described above, mice were allocated into groups (six mice per group) as follows: control group (IV 100 uL/10 g sterile PBS) and 3d at 15 mg/kg given once weekly. […] In the control group the median time to endpoint was 42 days compared to 79 days in the treated group.

[3] = Tolerability and body weight in xenograft study; type: in vivo
Protocol: as §1, §2

With `CN1CCN(CCCNc2cc3c4c(c(NCCCN5CCN(C)CC5)cc5c4c2C(=O)N(CCCN2CCOCC2)C5=O)C(=O)N(CCCN2CCOCC2)C3=O)CC1` [Compound 3d, 4,9-bis((3-(4-methylpiperazin-1-yl)propyl)amino)-2,7-bis(3-morpholinopropyl)benzo[lmn][3,8]phenanthroline-1,3,6,8(2H,7H)-tetraone] the “number of telomere maintenance genes with greater than two-fold abundance changes” value ([1]; 20, 40 or 80 nM, 24 h) was “seven”, the “expression of the gene encoding POT1” value ([1]; borderline of statistical significance) was “down-regulation” and the “number of telomere maintenance genes up or down-regulated to a statistically significant level (P<0.05)” value ([1]; of 83 genes, 20, 40 or 80 nM, 24 h) was 30 genes. The telomerase activity inhibition (telomerase) was “not inhibitors of telomerase activity”, the antitumour response ([2]; 15 mg/kg once weekly) was “sustained antitumour response” and the “median time to endpoint” value ([2]; 15 mg/kg once weekly, control group 42 days) was 79 days. The “mice with a complete response, tumour free at 136 days” value ([2]; 15 mg/kg once weekly, of six mice) was “two”, the “tumour growth compared to untreated controls” value ([2]; single dose 20 mg/kg IV) was “significant growth delay” and the tolerability of therapy ([3]; 15 mg/kg once weekly) was “well tolerated”. For the same molecule, the bodyweight loss ([3]; single dose 20 mg/kg or 15 mg/kg once weekly) was “without any significant bodyweight loss”.
